Results as given in US5585383A, “Process for crystallizing a 4-azasteroid 5alpha-reductase inhibitor” (Merck & Co., Inc., priority 1995, dated 1996).
Entries after “also recorded” stand apart in the source; their conditions may differ.

Assay: Relative stability of crystalline polymorphs (DSC, x-ray powder diffraction)
Assay type: physicochemical
Conditions: non-solvated crystalline forms of 4,7β-dimethyl-4-aza-5α-cholestan-3-one
Procedure: The crystallinity of each batch was determined primarily from Differential Scanning Calorimetry (DSC) employing a DuPont Model 910 Thermal Analyzer. However, any other reliable means may be employed to determine the crystallinity of a sample, such as x-ray powder diffraction, solid state NMR, or polarizing microscopy.
Generally, a DSC sample was prepared by weighing. 10 to 30 mg of material into a DSC cup and crimping the cup closed. Preferably, each DSC sample was run as soon as possible after preparation, most preferably within 15 minutes of preparation, because crystallinity increases with aging. Generally, samples were heated at a rate of 10° C./min from 10° C. to 100° C. under nitrogen. The DSC peaks were integrated and the measured heat of formation was divided by 46.6 J/g (the average heat of formation of samples confirmed by x-ray diffraction to contain no Form II) to calculate the percent crystallinity of the sample. The term percent crystallinity refers to the weight percent of 4,7β-dimethyl-4-aza-5α-cholestan-3-one sample weight in Form I.
X-ray diffraction was also employed to confirm DSC results. […] This method was not employed for quantitative analysis of the degree of crystallinity.

## CC(C)CCC[C@@H](C)[C@H]1CC[C@H]2[C@@H]3[C@@H](C)C[C@H]4N(C)C(=O)CC[C@]4(C)[C@H]3CC[C@]12C [Form II, 4,7β-dimethyl-4-aza-5α-cholestan-3-one]
  polymorph stability: transforms to Form I with time and/or mechanical manipulation; also recorded: less energetically favored polymorph

## CC(C)CCC[C@@H](C)[C@H]1CC[C@H]2[C@@H]3[C@@H](C)C[C@H]4N(C)C(=O)CC[C@]4(C)[C@H]3CC[C@]12C [Form I, 4,7β-dimethyl-4-aza-5α-cholestan-3-one]
  polymorph stability: more stable, energetically favored polymorph
